The text below walks through data of PMC5754397, “Population pharmacokinetics of nintedanib, an inhibitor of tyrosine kinases, in patients with non-small cell lung cancer or idiopathic pulmonary fibrosis” (Cancer Chemotherapy and Pharmacology, 2017).

The subject of one data set is target receptors. Details: method as in PMID 21204634. Particulars: cited from earlier work.
Details of data set [1]: method as in PMID 21204634. Particulars: dedicated ADME study; cited from earlier work.
Data set [2] is described as follows: Population pharmacokinetic model of metabolite BIBF 1202 plasma concentrations in patients with NSCLC or IPF treated with nintedanib. The class given is in vivo, human. From the text: This population pharmacokinetic analysis pooled data from nintedanib treatment in four clinical studies; 1 Phase II (n = 73) and two Phase III trials in patients with NSCLC (LUME-Lung 1 (n = 652) and LUME-Lung 2 (n = 347)) and one Phase II trial (TOMORROW, n = 343) in patients with IPF [11] (data from IPF Phase III trials were not available at time of analysis). An overview of these studies is provided in Online Resource Table S1. In the NSCLC Phase II trial, patients with locally advanced or metastatic relapsed NSCLC in whom first- or second line platinum-based chemotherapy had failed and were randomized to nintedanib 150 or 250 mg twice-daily. Treatment continued until disease progression or intolerable toxicity. In the NSCLC Phase III trials, nintedanib 200 mg twice-daily or placebo was given in repeated 21 day treatment cycles in combination with single infusions of docetaxel 75 mg/m^2 (LUME-Lung 1 trial) or pemetrexed 500 mg/m^2 (LUME-Lung 2 trial), administered on day 1 of each cycle. Treatment cycles were continued until disease progression or intolerable toxicity. In the Phase II trial in patients with IPF [11], patients were randomized to a 52-week treatment period with one of the four doses of nintedanib (50 mg once or twice-daily, 100, 150 mg twice-daily) or placebo. In all four trials, dose reductions and interruptions were allowed to manage adverse events. All studies were conducted in accordance with the Declaration of Helsinki and with approval of the local ethics committees. Written informed consent was obtained from all patients before study entry.
Blood sampling schema for measurement of nintedanib plasma concentrations varied. For all trials, at least two pre-dose and two post-dose blood samples were scheduled during treatment (see Online Resource Table S1). In addition, more extensive sampling was performed in the two Phase II trials. Nintedanib and BIBF 1202 plasma concentrations were analyzed by validated liquid chromatography–mass spectrometry (HPLC–MS/MS) methods. The calibration curves covered the range 0.5–500 ng/mL for nintedanib and 1–1000 ng/mL for BIBF 1202 in undiluted plasma samples and were linear over this range.
The population pharmacokinetic analysis was performed using non-linear mixed-effects modeling techniques (NONMEM, version VI 2.0, ICON Development Solutions, Ellicott City, Maryland, USA). The first-order conditional estimation algorithm with interaction was used. Data processing, diagnostic plots, and calculation of descriptive statistics were performed using R version 2.12.1 (http://www.rproject.org) and SAS version 9.2 (SAS Institute Inc, Cary, NC, USA). Bootstrap analysis was performed using Perl-speaks-NONMEM, version 3.5.3 [24, 25].
Using fixed pharmacokinetic parameter estimates from the nintedanib base model (typical values plus empirical Bayes estimates of individual η), the base model of BIBF 1202 was developed. Plasma concentrations of nintedanib and BIBF 1202 were reported in nM to account for differences in their molecular weight.
The covariate analysis for BIBF 1202 was based on the fixed pharmacokinetic parameters of the final nintedanib model and base model of BIBF 1202 and followed the same principles described for nintedanib (see Online Resource Table S3).
Model evaluation for BIBF 1202 was analogous to nintedanib, with the exception of the non-parametric bootstrap analysis.
Finally, after the sequential pharmacokinetic analysis for nintedanib and BIBF 1202, the parameters for the final models of nintedanib and BIBF 1202 were estimated simultaneously.
To illustrate individual covariate effects, the change in the median steady-state nintedanib and BIBF 1202 plasma concentration–time profiles were compared to the exposure in a typical patient. The typical patient was defined by baseline medians (continuous covariate) and modes (categorical covariate) of the respective covariates in the total analyzed population. […]

The test system of the next data set is PDGFRα. Also noted: method as in Boehringer Ingelheim unpublished data, 14. The following applies: PDGFRα stimulation of primary lung fibroblasts; ref Boehringer Ingelheim unpublished data, 14; cited from earlier work.
In the next data set the test system is PDGFRβ. Also noted: method as in Boehringer Ingelheim unpublished data, 14. The following applies: PDGFRβ stimulation of primary lung fibroblasts; ref Boehringer Ingelheim unpublished data, 14; cited from earlier work.
Data set [3] can be described thus: Population pharmacokinetic analysis in healthy subjects after intravenous administration of nintedanib (one-compartment model). Type of data set: in vivo, human. Particulars: healthy subjects, intravenous nintedanib; estimate (RSE%). The source says: The pharmacokinetic profile of BIBF 1202 was best described by a one-compartment model with first-order elimination (see Online Resource Fig. S1 for model structure). To account for formation of BIBF 1202 in the intestine or via hepatic first-pass effect, a first-order absorption with lag time (ALAG2) was implemented as per nintedanib absorption. The relative bioavailability (F2) and the absorption-rate constant (k a2) were implemented as functions of nintedanib F1 and k a, respectively (substantial drop in OFV as compared to a model, where F2 and k a2 were estimated independently of F1 and k a). This parametrization accounted for correlations between nintedanib and BIBF 1202 parameters and replaced the full variance–covariance matrix which was not applied due to the sequential modeling approach used. The rate of formation of BIBF 1202 (k met) during nintedanib systemic elimination was accounted by defining it as a function of nintedanib clearance: k met = CL/V2*ffM, where CL and V2 denote the clearance and central volume of distribution of nintedanib respectively, and ffM denotes the proportion of the nintedanib elimination resulting in BIBF 1202 formation. Due to the lack of data for BIBF 1202 given as an intravenous (IV) infusion, several parameter estimates were not identifiable (ffM, BIBF 1202 apparent volume of distribution [V3/F]) and were, therefore, fixed. The value for ffM was derived from pharmacokinetic data after IV administration of nintedanib (Online Resource Table S4) and the ratio of V3/F–V2/F was fixed based on information observed in rats. […] In addition to the (inter-individual) variability of F2 induced by the variability in F1 (F2 being proportional to F1), additional IIV could be implemented for F2.
Table S4 Structural parameters for nintedanib and BIBF 1202 from a population pharmacokinetic analysis based on healthy subjects (n=23^a, 372 observations) after intravenous administration of nintedanib
One subject (3 mg dose) was excluded from analysis due to increasing plasma concentrations of nintedanib after end of infusion

Data set [4] relates to VEGF or bFGF stimulation of human umbilical vascular endothelial cells. Also noted: method as in Boehringer Ingelheim unpublished data, 14. The following applies: VEGF or bFGF stimulation of HUVEC; ref Boehringer Ingelheim unpublished data, 14; cited from earlier work.
Another data set concerns mouse xenograft models. Details: method as in ref 7 = [7]; 7. European Medicines Agency (2014) Committee for Medicinal Products for Human Use (CHMP) Assessment Report for Vargatef (nintedanib), 25 September 2014. http://www.ema.europa.eu/docs/en_GB/document_l. Particulars: cited from earlier work.
The mark [5] stands for this setting: final BIBF 1202 model (sequential fit), estimate (RSE%).
[6] abbreviates: final BIBF 1202 model (sequential fit), reference Caucasian/Black origin = 1.00, estimate (RSE%).

Several values for one entry are separate records, joined by “and”; a condition that tells them apart may be missing. Equal entries are not always repeated. Marks after values point to notes of the source that are not given here.

As to `CN1CCN(CC(=O)N(C)c2ccc(N/C(=C3\C(=O)Nc4cc(C(=O)O[C@@H]5O[C@H](C(=O)O)[C@@H](O)[C@H](O)[C@H]5O)ccc43)c3ccccc3)cc2)CC1` [BIBF 1202 glucuronide], the “in vitro activity at the target receptors” value in the data set on target receptors was “did not show in vitro activity”.

As for `CN1CCN(CC(=O)N(C)c2ccc(N/C(=C3\C(=O)Nc4cc(C(=O)O)ccc43)c3ccccc3)cc2)CC1` [BIBF 1202], in data set [1], the “metabolic ratio for AUC (BIBF 1202 to nintedanib)” value is listed as approximately 1 and the “metabolic ratio for Cmax (BIBF 1202 to nintedanib)” value is listed as approximately 1. Besides, in data set [2] (covariates influencing BIBF 1202 but not nintedanib exposure), the “changes in BIBF 1202 exposure by ECOG performance status and LDH” value was less than 30%. Besides, the “IIV in F2” value in data set [2] (final BIBF 1202 model (sequential fit), estimate (RSE% on the variance scale)) was 56.7 (8.60^f) CV% and 56.7 (8.60^e) CV%. Further, in data set [2] (setting [5]), the “CL2/F (θCL2), apparent total body clearance for BIBF 1202” value is 7.05 (6.37) L/h; the “F2/F1 (θF2F1), ratio of relative bioavailabilities BIBF 1202 to nintedanib” value is 0.0110 (11.3); the “covariate effect on F2, θLDH_Breakpoint (breakpoint for LDH)” value is reported as 688 (22.0) U/L; the “covariate effect on F2, θWT” value is listed as -0.848 (12.2). In data set [2] (setting [5]), the “ka2/ka (θka2ka), ratio of absorption rate constants BIBF 1202 to nintedanib” value is on record as 1.47 (8.16). Moreover, the “covariate effect on F2, θLDH (coefficient for LDH [U/L])” value in data set [2] (final BIBF 1202 model (sequential fit), hockey-stick function, estimate (RSE%)) is listed as 0.000656 (22.1). In data set [2] (setting [6]), the “covariate effect on F2, θEthnicity: Asian origin (except for Indian)” value is listed as 1.20 (4.83) and the “covariate effect on F2, θEthnicity: Indian origin” value was 1.90 (13.5). For the same compound, the “covariate effect on F2, θECOG: ECOG≥1” value in data set [2] (final BIBF 1202 model (sequential fit), reference ECOG=0 = 1.00, estimate (RSE%)) is 1.16 (4.16). Moreover, the “covariate effect on ka2, θTrial: NSCLC Phase II and IPF Phase II” value in data set [2] (final BIBF 1202 model (sequential fit), reference LUME-Lung 1 and LUME-Lung 2 = 1.00, estimate (RSE%)) is recorded as 0.756 (7.72). In addition, in data set [2] (final BIBF 1202 model (sequential fit), reference adenocarcinoma = 1.00, estimate (RSE%)), the “covariate effect on ka2, θNSCLC_histology: non-adenocarcinoma” value is given as 1.36 (8.90). Further, the “share of BIBF 1202 in plasma formed systemically” value in data set [2] (final model, systemic formation rate fixed to the value from the IV study) is given as “about 8%”. For the same compound, the “upper limit of the predicted 2 h post-dose concentration for Indian patients” value in data set [2] (pcQPC of the final BIBF 1202 model, 95% prediction interval of simulated medians, steady state) is reported as 88 ng/mL. In data set [2] (simultaneous estimation), the “F2/F1 (θF2F1)” value is reported as 0.0153 (–); the “IIV in F2” value is 47.9 (–) CV%; the “covariate effect on F2, θECOG: ECOG≥1” value is listed as 1.13 (–); the “covariate effect on F2, θEthnicity: Asian origin (except for Indian)” value was 1.19 (–). For the same compound, in data set [2] (simultaneous estimation), the “covariate effect on F2, θEthnicity: Indian origin” value is 1.81 (–); the “covariate effect on F2, θLDH (coefficient for LDH [U/L])” value is 0.00064 (–); the “covariate effect on F2, θLDH_Breakpoint (breakpoint for LDH)” value is listed as 683 (–) U/L; the “covariate effect on F2, θWT” value is -0.791 (–). In addition, in data set [2] (simultaneous estimation), the “covariate effect on ka2, θNSCLC_histology: non-adenocarcinoma” value is 1.24 (–); the “covariate effect on ka2, θTrial: NSCLC Phase II and IPF Phase II” value is recorded as 0.864 (–); the “ka2/ka (θka2ka)” value is recorded as 1.14 (–). Besides, the “CL2/F (θCL2)” value in data set [2] (simultaneous estimation of nintedanib and BIBF 1202 models, RSE not available) is given as 9.68 (–) L/h. For the same compound, the “lower potency compared to nintedanib” value in the data set with PDGFRα was 265 fold. The “lower potency compared to nintedanib” value in the data set on PDGFRβ is 607 fold. Besides, in data set [3], the “CL2, total body clearance for BIBF 1202” value is recorded as 0.513 (17.0) L/h. Moreover, the “lower potency compared to nintedanib” value in data set [4] is given as 9–10 fold. Also, the “efficacy in mouse xenograft models” value in the data set on mouse xenograft models is “not effective”.
